Laboratory results as given in patent US4780467A, “Esters of N-alkyl-nortropines and their quaternary derivatives having anti-bronchospastic activity, and pharmaceutical compositions containing them” (Laboratori Guidotti Spa, priority 1986, dated 1988).
pIC50: −log10 of the molar value. Like-named read-outs stand apart in the source and are kept apart here.

How the values were obtained:
[1] = system: isolated trachea of guinea pig; experiment: relaxation of isolated trachea of guinea pig precontracted with methacoline; conditions: Cavia porcellus, read-out: IC50, relaxing the contraction of the isolated trachea of guinea pig precontracted with methacoline
Excerpt: The compounds of the invention have been pharmacologically studied by means of in vitro and in vivo tests, suitable to evidence the anti-bronchospastic properties of the compounds. […] To this action a remarkable anti-bronchospastic action in the tests in vivo corresponded after administration by i.v. and inhalatory route.

[2] = system: bronchospasm induced by acetyl choline aerosol in guinea pig; experiment: inhibition of bronchospasm induced by acetyl choline aerosol in awake guinea pig; format: in vivo; conditions: for ED50: Cavia porcellus, iv; for ED50, inhibition of bronchospasm induced by acetyl choline aerosol: i.v.
[3] = system: platelet aggregation (rabbit prp) from collagen; experiment: platelet aggregation (rabbit prp) from collagen; format: cell-based; conditions: Oryctolagus cuniculus
[4] = system: PAF-acether induced bronchospasm in guinea pig; experiment: inhibition of PAF-acether induced bronchospasm in anestetized guinea pig; format: in vivo; conditions: for inhibition % of PAF-acether induced bronchospasm: guinea pig, i.v.; for inhibition of PAF-acether induced bronchospasm (in words): up to 3 μmol/kg
[5] = system: platelet aggregation (rabbit prp) from arachidonic acid; experiment: platelet aggregation (rabbit prp) from arachidonic acid; format: cell-based; conditions: Oryctolagus cuniculus
[6] = system: platelet aggregation (rabbit prp) from PAF acether; experiment: platelet aggregation (rabbit prp) from PAF-acether; format: cell-based; conditions: Oryctolagus cuniculus
[7] = acute toxicity in the mouse; conditions: in vivo; for LD50: approximate value; for selectivity ratio: ratio os/i.p., read-out: LD50 os/i.p.
[8] = ip, read-out: approximate value of LD50, i.p.
[9] = po, os, read-out: approximate value of LD50, os

Row | Compound | pIC50 [1] | ED50 [2] [µmol/kg] | further results
1 | CN1[C@@H]2CC[C@H]1C[C@@H](OC(=O)CC1=C(c3ccccc3)CCCC1)C2 [Example 6, Endo-3-(2-phenyl-1-cyclohexen-1-acetoxy)-8-sin-methyl-8-azabicyclo-[3.2.1.]-octane] | 5.38 | ~15 | 
2 | CCC[N+]1(C(C)C)[C@@H]2CC[C@H]1C[C@@H](OC(=O)C1CCCC=C1c1ccccc1)C2 (some centres unmarked) [1st formula, 3rd R, 4th R'] |  | > 5.7 | 
3 | CC(C)N1[C@@H]2CC[C@H]1C[C@@H](OC(=O)CC1=C(c3ccccc3)CCCC1)C2 [Example 7, Endo-3-(2-phenyl-1-cyclohexen-1-acetoxy)-8-sin-isoproyl-8-azabicyclo-[3.2.1.]-octane] | 4.52 | > 7.4 | 
4 | CCC[N+]1(C)[C@@H]2CC[C@H]1C[C@@H](OC(=O)CC1=C(c3ccccc3)CCCC1)C2 (some centres unmarked) [2nd formula, 1st R, 5th R'] | 6.62 | > 0.6 | 
5 | CC[N+]1(C(C)C)[C@@H]2CC[C@H]1C[C@@H](OC(=O)CC1=C(c3ccccc3)CCCC1)C2 (stereo partly drawn) [Example 32, Endo-3-(2-phenyl-1-cyclohexen-1-acetoxy)-8-sin-isopropyl-8-ethyl-8-azoniabicyclo-[3.2.1.]-octane iodide] | 5.05 | > 5.7 | 
6 | CC[N+]1(C(C)C)[C@@H]2CC[C@H]1C[C@@H](OC(=O)C1CCCC=C1c1ccccc1)C2 (stereo partly drawn) [Example 14, Endo-3-(2-phenyl-2-cyclohexen-1-carbonyloxy)-8-sin-isopropyl-8-ethyl-8-azoniabicylo-[3.2.1.]-octane iodide] |  |  | pIC50 [3]: < 4.00; inhibition % of PAF-acether induced bronchospasm ([4]; 0.3 μmol kg^-1): 0%; inhibition % of PAF-acether induced bronchospasm ([4]; 3 μmol kg^-1): 42 ± 14%; pIC50 [5]: < 4.00; ED50, inhibition of bronchospasm induced by acetyl choline aerosol ([2]; listed as 1st formula, 2nd R, R'=CH2CH3): 22 nmol/kg; pIC50 [6]: 4.52; LD50 [7, 8]: 91 mg/kg; selectivity ratio ([7]; ip): 3.3; LD50 [7, 9]: 300 mg/kg
7 | CCCC[N+]1(CCC)[C@@H]2CC[C@H]1C[C@@H](OC(=O)C1CCCC=C1c1ccccc1)C2 (some centres unmarked) [1st formula, 3rd R, 7th R'] | 6.72 | > 5.6 | 
8 | CC[N+]1(CC(C)C)[C@@H]2CC[C@H]1C[C@@H](OC(=O)C1CCCC=C1c1ccccc1)C2 (some centres unmarked) [1st formula, 1st R, 6th R'] | 7.27 | > 5.7 | 
9 | CC(C)N1[C@@H]2CC[C@H]1C[C@@H](OC(=O)C1CCCC=C1c1ccccc1)C2 (stereo partly drawn) [Example 1, Endo-3-(2-phenyl-2-cyclohexen-1-carbonyloxy)-8-sin-isopropyl-8-azabicyclo-[3.2.1]-octane] | 6.46 | ~1.5 | 
10 | CCCC[N+]1(CC)[C@@H]2CC[C@H]1C[C@@H](OC(=O)C1CCCC=C1c1ccccc1)C2 (some centres unmarked) [1st formula, 1st R, 7th R'] | 7.16 |  | 
11 | CC(C)[N+]1(C)[C@@H]2CC[C@H]1C[C@@H](OC(=O)CC1=C(c3ccccc3)CCCC1)C2 (some centres unmarked) [2nd formula, 1st R, 4th R'] |  | > 0.6 | 
12 | CC(C)[N+]1(C)[C@@H]2CC[C@H]1C[C@@H](OC(=O)C(CO)c1ccccc1)C2 (some centres unmarked) [ipratropium bromide, reference compound] | 8.70 | 0.012 | inhibition of PAF-acether induced bronchospasm (in words) ([4]; anestetized guinea pig): fully inactive; inhibition % of PAF-acether induced bronchospasm ([4]; 3 μmol kg^-1): 7 ± 10%; ED50, inhibition of bronchospasm induced by acetyl choline aerosol [2]: 12 nmol/kg
13 | CC(C)C[N+]1(C(C)C)[C@@H]2CC[C@H]1C[C@@H](OC(=O)C1CCCC=C1c1ccccc1)C2 (some centres unmarked) [1st formula, 2nd R, 6th R'] | 7.10 | 1.08 | 
14 | CC(C)[N+]1(C)[C@@H]2CC[C@H]1C[C@@H](OC(=O)CC1=C(c3ccccc3)CCCC1)C2 (stereo partly drawn) [Example 31, Endo-3-(2-phenyl-1-cyclohexen-1-acetoxy)-8-sin-isopropyl-8-methyl-8-azoniabicyclo-[3.2.1.]-octane iodide] | 7.57 |  | 
15 | CC[N+]1(C)[C@@H]2CC[C@H]1C[C@@H](OC(=O)CC1=C(c3ccccc3)CCCC1)C2 (stereo partly drawn) [Example 9, Endo-3-(2-phenyl-1-cyclohexen-1-acetoxy)-8-sin-methyl-8-ethyl-8-azoniabicyclo-[3.2.1.]-octane iodide] | 7.49 | ~0.4 | 
16 | C[N+]1(C)[C@@H]2CC[C@H]1C[C@@H](OC(=O)CC1=C(c3ccccc3)CCCC1)C2 [Example 8, Endo-3-(2-phenyl-1-cyclohexen-1-acetoxy)-8,8-dimethyl-8-azoniabicyclo-[3.2.1.]-octane iodide] | 8.96 |  | LD50 [7, 8]: 45 mg/kg; selectivity ratio ([7]; ip): 18; LD50 [7, 9]: 800 mg/kg

Row | Compound | pIC50 [1] | ED50 [2] [µmol/kg] | further results
17 | CCCN1[C@@H]2CC[C@H]1C[C@@H](OC(=O)C1CCCC=C1c1ccccc1)C2 (stereo partly drawn) [Example 5, Endo-3-(2-phenyl-2-cyclohexen-1-carbonyloxy)-8-sin-propyl-8-azabicyclo-[3.2.1.]-octane] | 5.77 | > 7.7 | 
18 | CCCC[N+]1(C(C)C)[C@@H]2CC[C@H]1C[C@@H](OC(=O)C1CCCC=C1c1ccccc1)C2 (some centres unmarked) [1st formula, 2nd R, 7th R'] | 7.35 | 0.99 | 
19 | CC(C)[N+]1(C)[C@@H]2CC[C@H]1C[C@@H](OC(=O)C1CCCC=C1c1ccccc1)C2 (stereo partly drawn) [Example 13, Endo-3-(2-phenyl-2-cyclohexen-1-carbonyloxy)-8-sin-isopropyl-8-methyl-8-azoniabicyclo-[3.2.1.]-octane iodide] | 9.17 |  | pIC50 [3]: < 4.00; inhibition % of PAF-acether induced bronchospasm ([4]; 0.3 μmol kg^-1): 0%; inhibition % of PAF-acether induced bronchospasm ([4]; 3 μmol kg^-1): 28 ± 13%; pIC50 [5]: < 4.00; pIC50 [6]: 4.41; LD50 [7, 8]: 123 mg/kg; selectivity ratio ([7]; ip): 4.1; LD50 [7, 9]: 500 mg/kg
20 | CC[N+]1(CC)[C@@H]2CC[C@H]1C[C@@H](OC(=O)C1CCCC=C1c1ccccc1)C2 (stereo partly drawn) [Example 21, Endo-3-(2-phenyl-2-cyclohexene-1-carbonyloxy)-8,8-di-ethyl-azoniabicyclo-[3.2.1.]-octane iodide] | 10.52 | 0.029 | pIC50 [3]: < 4.00; ED50 ([4]; Cavia porcellus, anestetized guinea pig): 0.8 µmol/kg; inhibition % of PAF-acether induced bronchospasm ([4]; 0.3 μmol kg^-1): 43 ± 16%; inhibition % of PAF-acether induced bronchospasm ([4]; 3 μmol kg^-1): 64 ± 16%; pIC50 [5]: < 4.00; pIC50 [6]: 5.62; LD50 [7, 8]: 107 mg/kg; selectivity ratio ([7]; ip): 7.5; LD50 [7, 9]: 800 mg/kg
21 | CCN1[C@@H]2CC[C@H]1C[C@@H](OC(=O)C1CCCC=C1c1ccccc1)C2 (stereo partly drawn) [Example 4, Endo-3-(2-phenyl-2-cyclohexen-1-carbonyloxy)-8-sin-ethyl-8-azabicyclo-[3.2.1.]-octane] | 6.55 | 6.12 | 
22 | CCC[N+]1(CC)[C@@H]2CC[C@H]1C[C@@H](OC(=O)C1CCCC=C1c1ccccc1)C2 (stereo partly drawn) [Example 26, Endo-3-(2-phenyl-2-cyclohexen-1-carbonyloxy)-8-sin-propyl-8-ethyl-8-azoniabicyclo-[3.2.1.]-octane iodide] |  | 0.228 | 
23 | CCC[N+]1(CCC)[C@@H]2CC[C@H]1C[C@@H](OC(=O)C1CCCC=C1c1ccccc1)C2 (some centres unmarked) [1st formula, 3rd R, 5th R'] | 6.42 |  | 
24 | CCC[N+]1(CC(C)C)[C@@H]2CC[C@H]1C[C@@H](OC(=O)C1CCCC=C1c1ccccc1)C2 (some centres unmarked) [1st formula, 3rd R, 6th R'] | 5.92 | > 5.6 | 
25 | CCC[N+]1(C(C)C)[C@@H]2CC[C@H]1C[C@@H](OC(=O)CC1=C(c3ccccc3)CCCC1)C2 (some centres unmarked) [2nd formula, 2nd R, 5th R'] | 5.07 | > 5.6 | 
26 | CCC[N+]1(C)[C@@H]2CC[C@H]1C[C@@H](OC(=O)C1CCCC=C1c1ccccc1)C2 (stereo partly drawn) [Example 25, Endo-3-(2-phenyl-2-cyclohexen-1-carbonyloxy)-8-sin-propyl-8-methyl-8-azoniabicyclo-[3.2.1.]-octane iodide] | 8.48 |  | LD50 [7, 8]: 124 mg/kg; selectivity ratio ([7]; ip): 4.8; LD50 [7, 9]: 600 mg/kg
27 | CC(C)[N+]1(C(C)C)[C@@H]2CC[C@H]1C[C@@H](OC(=O)CC1=C(c3ccccc3)CCCC1)C2 [2nd formula, 2nd R, 4th R'] | 4.17 | > 5.6 | 
28 | CC[N+]1(C(C)C)[C@@H]2CC[C@H]1C[C@@H](OC(=O)C1CCCC=C1c1ccccc1)C2 (some centres unmarked) [1st formula, 1st R, 4th R'] |  |  | ED50, inhibition of bronchospasm induced by acetyl choline aerosol [2]: ~ 5900 nmol kg^-1
29 | CC[N+]1(C)[C@@H]2CC[C@H]1C[C@@H](OC(=O)C1CCCC=C1c1ccccc1)C2 (stereo partly drawn) [Example 20, Endo-3-(2-phenyl-2-cyclohexen-1-carbonyloxy)-8-sin-ethyl-8-methyl-8-azoniabicyclo-[3.2.1.]-octane iodide] | 9.02 |  | pIC50 [3]: < 4.00; inhibition % of PAF-acether induced bronchospasm ([4]; 0.3 μmol kg^-1): 3 ± 11%; inhibition % of PAF-acether induced bronchospasm ([4]; 3 μmol kg^-1): 36 ± 17%; pIC50 [5]: < 4.00; pIC50 [6]: 5.11; LD50 [7, 8]: 126 mg/kg; selectivity ratio ([7]; ip): 2.8; LD50 [7, 9]: 350 mg/kg
30 | CN1[C@@H]2CC[C@H]1C[C@@H](OC(=O)C(CO)c1ccccc1)C2 (some centres unmarked) [Atropine sulphate, atropine sulphate, reference compound] | 8.16 | 0.068 | inhibition of PAF-acether induced bronchospasm (in words) ([4]; anestetized guinea pig): fully inactive; inhibition % of PAF-acether induced bronchospasm ([4]; 3 μmol kg^-1): 0%; ED50, inhibition of bronchospasm induced by acetyl choline aerosol [2]: 68 nmol/kg
31 | CC(C)[N+]1(C(C)C)[C@@H]2CC[C@H]1C[C@@H](OC(=O)C1CCCC=C1c1ccccc1)C2 (some centres unmarked) [1st formula, 2nd R, 4th R'] | 7.34 | 2.5 | 
